In test [1] the test system is HIV primary isolates and laboratory-adapted strains. The conditions noted are these: cited from earlier work.
The test system of test [2] is antibody 38C2. Briefly: Inactivation of the catalytic (aldolase) activity of antibody 38C2, fluorescence assay with methadol as substrate. In kind it is biochemical, mouse. The settings on record: preliminary studies, unpublished results. The protocol:
To assess the potential of 2a, 3a, 2c, and 3c as programming agents, these compounds were separately mixed with antibody 38C2 at a ratio of 2:1, and the mixtures were incubated at 37° C. for 2 h. A fluorescence assay, based on using methadol as the substrate, was used to assess time-dependent inactivation of the catalytic activity of the antibody (14). Inactivation of aldolase activity should be indicative of modification of the catalytic lysine residue and, thus, chemical programming of the antibody. In the absence of the programming agents, 38C2 rapidly catalyzed the retro-aldol reaction of methadol to produce the fluorescent product 6-methoxy-2-naphthaldehyde. […] (The cpAb 38C2 using targeting agents 2a or 3a were named as 38C2-2b and 38C2-3b, respectively, based on the fact that compounds 2b and 3b were the expected ligands that conjugated with 38C2. Similarly, the analogous chemically programmed 38C2 Fab (or cp38C2Fab) construct obtained from 3a was named as 38C2Fab-3b.) These observations clearly supported the assumption that vinyl ketones, 2b and 3b, produced in situ from their acetone adducts, reacted with the active site of the antibody and also reinforced the previously described construct formation from the analogous diketone compounds 2c and 3c.

For the compound `C=C(C)[C@@H]1CC[C@]2(C(=O)NCCCCCCCC(=O)N[C@@H](CC(C)C)[C@H](O)CC(=O)O)CC[C@]3(C)[C@H](CC[C@@H]4[C@@]5(C)CC[C@H](O)C(C)(C)[C@@H]5CC[C@]43C)[C@@H]12` [IC9564], the anti-HIV activity entry in test [1] was “can inhibit both HIV primary isolates and laboratory-adapted strains”.

Regarding `C=CC(C)=O` [methylvinyl ketone], in test [2], the “inactivation of the antibody” value is recorded as “rapidly inactivated the antibody”.

The values above are taken from patent US20080213249A1, “Use of Retro-Aldol Reaction to Generate Reactive Vinyl Ketone for Attachment to Antibody Molecules by Michael Addition Reaction for Use in Immunostaining and Immunotargeting” (THE SCRIPPS RESEARCH INSITUTE, priority 2006, published 2008).
